Literature values as cited in patent publication US11191849B2, “Compositions and methods for delivering messenger RNA” (ARBUTUS BIOPHARMA CORPORATION, priority 2016, dated 2021).

| Compound | log P |
| --- | --- |
| CC(C)C(=O)OCC(=O)[C@@]12O[C@H](C3CCCCC3)O[C@@H]1C[C@H]1[C@@H]3CCC4=CC(=O)C=C[C@]4(C)[C@H]3[C@@H](O)C[C@@]12C [Ciclesonide] | ~5.3 |
| CCC(=O)O[C@]1(C(=O)CCl)[C@@H](C)C[C@H]2[C@@H]3CCC4=CC(=O)C=C[C@]4(C)[C@@]3(F)[C@@H](O)C[C@@]21C [Clobetasol, clobetasol-17-propionate] | ~3.5 |
| CCCCCCCCCCCCCCCC(=O)OCC(=O)[C@@]1(O)[C@H](C)C[C@H]2[C@@H]3CCC4=CC(=O)C=C[C@]4(C)[C@@]3(F)[C@@H](O)C[C@@]21C [Dex-P, Dexamethasone 21-palmitate] | ~9 |
